{
  "source": "patent US20250223331A1",
  "about": "“GLP-1/GIP DUAL-TARGETED POLYPEPTIDE AND FUSION PROTEIN AND APPLICATIONS THEREOF” (SUNSHINE LAKE PHARMA CO., LTD., priority 2021, published 2025)",
  "assay_type_in_all_cases": "in vivo",
  "key": {"normal C57BL/6 mice [1]": {"tested_on": "normal C57BL/6 mice", "experiment": "glucose tolerance in normal C57BL/6 mice (Example 8)", "conditions": "3 nmol/kg s.c. single dose, 72 h after dose", "experimental": "Experimental methods: Normal C57BL/6 mice were randomly divided into 6 groups (Vehicle group, Dulaglutide group, HEC-G113 group, HEC-G122 group, HEC-G126 group, HEC-G127 group) according to blood glucose and body weight, with 8 mice in each group. For the groups of Dulaglutide (Dulaglutide purchased from Eli Lilly, lot number was D256504), HEC-G113, HEC-G122, HEC-G126 and HEC-G127, the corresponding drug was injected subcutaneously into the mice at a dose of 3 nmol/kg, and for the control group, the corresponding vehicle was injected subcutaneously.\n(§1) After 60 h of single administration, the mice were fasted for 12 h and drank water freely. Blood was collected from the tail vein to measure the basal blood glucose value of each group, then 2 g/kg of glucose solution was injected intraperitoneally, and blood glucose was measured at 15, 30, 60, 90 and 0 min after glucose administration. According to the blood glucose values measured at different time points, the blood glucose concentration-time curve was plotted, and the AUC0˜90min of each dose group was calculated, and the experimental results are shown in Table 7 and FIGS. 3-4"}, "normal C57BL/6 mice [2]": {"tested_on": "normal C57BL/6 mice", "experiment": "glucose tolerance in normal C57BL/6 mice (Example 7)", "conditions": "3 nmol/kg s.c. single dose, 72 h after dose", "experimental": "Experimental methods: Normal C57BL/6 mice were randomly divided into 6 groups (Vehicle group, Dulaglutide group, HEC-G123 group, HEC-G128 group, HEC-G131 group, HEC-G132 group) according to blood glucose and body weight, with 8 mice in each group. For the groups of Dulaglutide, HEC-G123, HEC-G128, HEC-G131 and HEC-G132, the corresponding drug was injected subcutaneously into the mice at a dose of 3 nmol/kg, and for the control group, the corresponding vehicle was injected subcutaneously.\nas §1, with “60,” for “60, 90”, “6” for “7”, “1-2.” for “3-4”"}, "normal C57BL/6 mice [3]": {"tested_on": "normal C57BL/6 mice", "experiment": "glucose tolerance in normal C57BL/6 mice (Example 7)", "conditions": "3 nmol/kg s.c. single dose, 72 h after dose, 2 g/kg glucose i.p."}, "[4]": {"conditions": "blood glucose concentration-time curve"}},
  "note": "Marks after values point to notes of the source that are not given here.",
  "data": [
    {"substance": "Dulaglutide [reference compound]", "values": [
      {"measurement": "Blood glucose value 0 min", "setting": "normal C57BL/6 mice [1]; 2 g/kg glucose i.p., 0 min", "result": "4.3 ± 0.4", "unit": "mM"},
      {"measurement": "Blood glucose value 15 min", "setting": "normal C57BL/6 mice [1]; 2 g/kg glucose i.p., 15 min", "result": "15.3 ± 3.1", "unit": "mM"},
      {"measurement": "Blood glucose value 30 min", "setting": "normal C57BL/6 mice [1]; 2 g/kg glucose i.p., 30 min", "result": "15.1 ± 2.7", "unit": "mM"},
      {"measurement": "Blood glucose value 60 min", "setting": "normal C57BL/6 mice [1]; 2 g/kg glucose i.p., 60 min", "result": "9.1 ± 1.3", "unit": "mM"},
      {"measurement": "Blood glucose value 90 min", "setting": "normal C57BL/6 mice [1]; 2 g/kg glucose i.p., 90 min", "result": "6.8 ± 0.9", "unit": "mM"},
      {"measurement": "AUC0-90 min", "setting": "normal C57BL/6 mice [1]; [4]", "result": "976.2 ± 135.6 ^a"},
      {"measurement": "Blood glucose value 0 min", "setting": "normal C57BL/6 mice [2]; 2 g/kg glucose i.p., 0 min", "result": "4.4 ± 0.8", "unit": "mM"},
      {"measurement": "Blood glucose value 15 min", "setting": "normal C57BL/6 mice [2]; 2 g/kg glucose i.p., 15 min", "result": "15.7 ± 2.2", "unit": "mM"},
      {"measurement": "Blood glucose value 30 min", "setting": "normal C57BL/6 mice [2]; 2 g/kg glucose i.p., 30 min", "result": "12.7 ± 2.4", "unit": "mM"},
      {"measurement": "Blood glucose value 60 min", "setting": "normal C57BL/6 mice [2]; 2 g/kg glucose i.p., 60 min", "result": "8.1 ± 1.0", "unit": "mM"},
      {"measurement": "AUC0-90 min", "setting": "normal C57BL/6 mice [2]; [4]", "result": "899.0 ± 105.4 ^a"},
      {"measurement": "Blood glucose value 90 min", "setting": "normal C57BL/6 mice [3]", "result": "6.8 ± 0.6", "unit": "mM"}
    ]}
  ]
}
